Measurements published in patent EP0494819B1, “Phenylimidazolidines, their process for fabrication, their application as medicaments and the pharmaceutical compositions containing them” (ROUSSEL UCLAF, priority 1991, dated 1992).

How the values were obtained:
récepteur androgène = target: T1, récepteur androgène (Rattus norvegicus, UniProt P15207); assay: Affinity for the androgen receptor: relative binding affinity (ARL), displacement of tritiated testosterone in prostate cytosol of castrated rats; parameters: species or system rats mâles Sprague Dawley EOPS; settings: testosterone = 100, ARL=100 (CH)/(CX); for ARL (affinité relative de liaison), Incubation : 30 minutes: incubation 30 minutes at 0°C; for ARL (affinité relative de liaison), Incubation : 24 heures: incubation 24 hours at 0°C
T1 construct: Des aliquotes du surnageant obtenu (=cytosol), sont incubées 30 minutes et 24 heures à 0°C; from tissue; host or cells: prostate cytosol (105 000 g supernatant) of castrated male Sprague Dawley rats
T1 sequence (P15207 1-902): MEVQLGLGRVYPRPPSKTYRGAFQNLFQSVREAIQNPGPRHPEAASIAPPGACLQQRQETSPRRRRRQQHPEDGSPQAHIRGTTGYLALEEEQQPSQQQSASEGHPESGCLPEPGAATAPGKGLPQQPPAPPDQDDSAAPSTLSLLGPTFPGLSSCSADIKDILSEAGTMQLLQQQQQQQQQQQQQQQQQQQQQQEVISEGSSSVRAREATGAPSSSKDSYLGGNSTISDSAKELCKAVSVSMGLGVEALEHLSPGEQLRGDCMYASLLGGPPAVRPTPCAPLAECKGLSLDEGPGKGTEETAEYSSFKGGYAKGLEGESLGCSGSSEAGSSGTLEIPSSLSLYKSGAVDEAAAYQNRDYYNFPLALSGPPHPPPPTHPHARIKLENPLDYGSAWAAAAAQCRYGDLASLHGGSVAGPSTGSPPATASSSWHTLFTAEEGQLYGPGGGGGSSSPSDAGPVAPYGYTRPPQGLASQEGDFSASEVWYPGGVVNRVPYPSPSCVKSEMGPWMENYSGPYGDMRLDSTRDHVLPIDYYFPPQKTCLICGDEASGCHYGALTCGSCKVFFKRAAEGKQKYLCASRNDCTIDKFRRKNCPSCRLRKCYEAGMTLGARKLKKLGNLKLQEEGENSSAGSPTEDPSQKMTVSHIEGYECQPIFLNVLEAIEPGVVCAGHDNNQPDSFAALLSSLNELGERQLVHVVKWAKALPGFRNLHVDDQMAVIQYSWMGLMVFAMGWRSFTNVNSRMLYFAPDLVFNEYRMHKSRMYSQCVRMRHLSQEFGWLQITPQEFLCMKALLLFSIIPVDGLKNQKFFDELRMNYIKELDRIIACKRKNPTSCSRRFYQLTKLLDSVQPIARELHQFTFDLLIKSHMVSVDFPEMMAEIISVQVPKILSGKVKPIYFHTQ
Procedure: 1) Etude de l'affinité des produits de l'invention pour le récepteur androgène
Des rats mâles Sprague Dawley EOPS de 180-200 g, castrés de 24 heures, sont sacrifiés, les prostates prélevées, pesées et homogénéisées à 0°C à l'aide d'un potter verre-verre, dans une solution tamponnée (Tris 10mM, saccharose 0,25M, PMSF (phénylméthanesulfonylfluoride) 0,1mM, Molybdate de sodium 20mM, HCl pH 7,4; auxquels on ajoute extemporanément 2mM de DTT (DL dithiothreitol), à raison de 1 g de tissu pour 8 ml de tampon.
L'homogénat est ensuite ultracentrifugé à 0°C, 45 minutes à 105 000 g.
Calcul de l'affinité relative de liaison (ARL).
On trace les 2 courbes suivantes : le pourcentage de l'hormone tritiée liée B/T en fonction du logarithme de la concentration de l'hormone de référence froide et B/T en fonction du logarithme de la concentration du produit froid testé. On détermine la droite d'équation I50=(B/Tmax + B/Tmin)/2. B/T max= % de l'hormone tritiée liée pour une incubation de cette hormone tritiée à la concentration (T). B/T min= % de l'hormone tritiée liée pour une incubation de cette hormone tritiée à la concentration (T) en présence d'un grand excès d'hormone froide (2500.10^-9M).
Les intersections de la droite I50 et des courbes, permettent d'évaluer les concentrations de l'hormone de référence froide (CH) et du produit froid testé (CX) qui inhibent de 50 % la liaison de l'hormone tritiée sur le récepteur.

[1] = tested on: ornithine décarboxylase rénale; assay: Androgen or anti-androgen activity by assay of renal ornithine decarboxylase in castrated mice, oral treatment; format: in vivo, souris mâles SWISS; settings: kidneys taken 16 h after treatment; for Antagonisme (PO): with testosterone propionate 3 mg/kg s.c.
Procedure: 2) Détermination de l'activité androgène ou anti-androgène des produits de l'invention à l'aide du dosage de l'ornithine de carboxylase.
16 heures après les traitements, les animaux sont sacrifiés, les reins prélevés, puis homogénéisés à 0°C , à l'aide d'un broyeur téflon-verre dans 10 volumes de tampon Tris-HCl 50 mM (pH 7,4) contenant 250 uM de phosphate de pyridoxal, 0,1 mM EDTA, et 5 mM de dithiothreitol. L'homogenat est ensuite centrifugé à 105000 g pendant 45 mn.
A 37°C, l'ornithine décarboxylase rénale transforme un mélange isotopique d'ornithine froide et d'ornithine tritiée en putrescine froide et putrescine tritiée.
La putrescine est ensuite recueillie sur des papiers sélectifs, échangeurs d'ions. Après séchage, l'excès d'ornithine tritiée et froide non transformée est éliminé, par 3 lavages d'ammoniaque 0,1 M. Les papiers sont séchés, puis la radioactivité est comptée après addition de scintillant Aqualite.
Les résultats sont exprimés en fmoles ([…]) de putrescine tritiée formée/heure/mg de protéines.

Row | SMILES | ARL (affinité relative de liaison), Incubation : 30 minutes (récepteur androgène) | ARL (affinité relative de liaison), Incubation : 24 heures (récepteur androgène) | Antagonisme (PO) ([1]; 3 mg/kg PO) | Antagonisme (PO) ([1]; 0,3 mg/kg PO) | Antagonisme (PO) ([1]; 1 mg/kg PO) | Antagonisme (PO) ([1]; 0,1 mg/kg PO) | Antagonisme (PO) ([1]; 10 mg/kg PO) | Angonisme (PO) ([1]; 10 mg/kg PO, without testosterone propionate)
1 | CCN1C(=O)N(c2ccc([N+](=O)[O-])c(C(F)(F)F)c2)C(=O)C1(C)C [Produit de l'exemple 2, 5,5-diméthyl-1-éthyl-3-(4-nitro-3-(trifluorométhyl)phényl)-2,4-imidazolidinedione] | 22 | 6 | – | – | – | – | – | –
2 | CC1(C)NC(=S)N(c2ccc(C#N)c(C(F)(F)F)c2)C1=N [Produit de l'exemple 14, 4-(4,4-diméthyl-5-imino-2-thioxo-1-imidazolidinyl)-2-(trifluorométhyl)-benzonitrile] | 27 | 7 | 3 mg/kg : 87% | – | – | – | – | –
3 | CC1(C)NC(=S)N(c2ccc(C#N)c(C(F)(F)F)c2)C1=O [Produit de l'exemple 15, 4-(4,4-diméthyl-5-oxo-2-thioxo-1-imidazolidinyl)-2-(trifluorométhyl)-benzonitrile] | 69 | 24 | – | 0,3 mg/kg : 4% | 1 mg/kg : 82% | – | – | –
4 | CN1C(=S)N(c2ccc(C#N)c(C(F)(F)F)c2)C(=N)C1(C)C [Produit de l'exemple 11, 4-(5-imino-2-thioxo-3,4,4-triméthyl-1-imidazolidinyl)-2-(trifluorométhyl)-benzonitrile] | 28 | 8 | 3 mg/kg : 83% | – | – | – | – | –
5 | CC(C)N1C(=O)N(c2ccc([N+](=O)[O-])c(C(F)(F)F)c2)C(=O)C1(C)C [Produit de l'exemple 4, 5,5-diméthyl-1-(1-méthyl éthyl)-3-(4-nitro-3-(trifluorométhyl)phényl)-2,4-imidazolidinedione] | 21 | 5 | – | – | – | – | – | –
6 | CN1C(=O)N(c2ccc([N+](=O)[O-])c(C(F)(F)F)c2)C(=O)C1(C)C [Produit de l'exemple 1, 1-(4-nitro-3-(trifluorométhyl)phényl)-3,4,4-triméthyl-2,5-imidazolidinedione] | 27,5 | 3 | – | – | – | – | – | –
7 | CN1C(=S)N(c2ccc(C#N)c(C(F)(F)F)c2)C(=S)C1(C)C [Produit de l'exemple 13, 4-(2,5-dithioxo-3,4,4-triméthyl-1-imidazolidinyl)-2-(trifluorométhyl)-benzonitrile] | 31 | 39 | – | – | – | – | – | –
8 | CN1C(=S)N(c2ccc(C#N)c(C(F)(F)F)c2)C(=O)C1(C)C [Produit de l'exemple 12, 4-(5-oxo-2-thioxo-3,4,4-triméthyl-1-imidazolidinyl)-2-(trifluorométhyl)-benzonitrile] | 128 | 92 | 3 mg/kg : 94% | 0,3 mg/kg : 36% | 1 mg/kg : 68% | 0,1 mg/kg : 12% | 10 mg/kg : 99% | 10 mg/kg : 0%
